Paper PMC9732823, “Discovery of Dual Aβ/Tau Inhibitors and Evaluation of Their Therapeutic Effect on a Drosophila Model of Alzheimer’s Disease” (ACS Chemical Neuroscience, 2022)
Where two headings read alike, the source gives them in different places.

Experiments:
Aβ42 = target: T1, Aβ42 (Homo sapiens, UniProt P05067); experiment: Inhibition of Aβ42 aggregation in intact E. coli cells overexpressing Aβ42 (ThS fluorescence); type: cell-based, Escherichia coli
T1 construct: expressed in transfected cells; host or cells: Escherichia coli BL21 (DE3), pET28a
From the text: (§1) As it would have been labor-intensive and expensive to screen such a number of compounds in two separate antiaggregating studies using recombinant Aβ and Tau, we turned our attention to a simple model of protein aggregation, namely, the intact Escherichia coli (E. coli) cells overexpressing Aβ42 and Tau proteins.[28],[29] Building on the fact that inclusion bodies produced by overexpression of these proteins in E. coli mainly consist of fibrillar aggregates, this simple screening method uses bacteria as an in vivo reservoir for tracking the inhibition of amyloid-type protein aggregation in real time, using the amyloid dye thioflavin S (ThS). Of note, this screening has already been used for the evaluation of libraries of antiaggregating compounds.[28]−[38]
Escherichia coli competent cells BL21 (DE3) were transformed with the pET28a vector (Novagen, Inc., Madison, WI) carrying the DNA sequence of Aβ42. Because of the addition of the initiation codon ATG in front of both genes, the overexpressed peptide contains an additional methionine residue at its N terminus. For overnight culture preparation, an amount of 10 mL of M9 minimal medium containing 50 μg·mL^–1 kanamycin was inoculated with a colony of BL21 (DE3) bearing the plasmid to be expressed at 37 °C. For expression of the Aβ42 peptide, the required volume of overnight culture to obtain 1:500 dilution was added into fresh M9 minimal medium containing 50 μg·mL^–1 kanamycin and 250 μM ThS. The bacterial culture was grown at 37 °C and 250 rpm. When the cell density reached ABS600 nm = 0.6, an amount of 980 μL of culture was transferred into Eppendorf tubes of 1.5 mL with 10 μL of each compound to be tested in DMSO and 10 μL of isopropyl 1-thio-β-D-galactopyranoside (IPTG) at 100 mM. The final concentration of the drug was fixed at 10 μM. The samples were grown overnight at 37 °C and 1400 rpm using a thermomixer (Eppendorf, Hamburg, Germany). As the control of the amyloid presence (maximal amyloid presence), the same amount of DMSO without the drug was added to the sample. In parallel, noninduced samples (in the absence of IPTG) were also prepared and used as controls of the non-amyloid presence. In addition, the absorbance at 600 nm of the samples was checked to assess the potential intrinsic toxicity of the compounds and to confirm the correct bacterial growth.
(§2) ThS (T1892) and other chemical reagents were purchased from Sigma (St. Louis, MO). ThS stock solution (25 mM) was prepared in double-distilled water purified through a Milli-Q system (Millipore). For the fluorescence assay, the ThS spectra were measured on an AMINCO-Bowman series 2 luminescence spectrophotometer (Aminco-Bowman AB2, SLM Aminco, Rochester, NY) from 460 to 600 nm at 25 °C using an excitation wavelength of 440 nm and slit widths of 4 nm. The emission at 485 nm (fluorescence peak of ThS in the presence of amyloids) was recorded. To normalize the ThS fluorescence as a function of the bacterial concentration, ABS600nm was obtained using a Shimadzu UV-2401 PC UV–Vis spectrophotometer (Shimadzu, Japan). Note that the fluorescence normalization was carried out considering as 100% the ThS fluorescence of the bacterial cells expressing the peptide or protein in the absence of the drug and 0% the ThS fluorescence of the bacterial cells nonexpressing the peptide or protein.

Tau protein = target: T2, Tau protein (Homo sapiens, UniProt P10636); experiment: Inhibition of Tau aggregation in intact E. coli cells overexpressing Tau (ThS fluorescence); type: cell-based, Escherichia coli; conditions: for inhibition at 10 µM: read-out: % inhibition Tau aggregation @ 10 μM, intact E. coli cells, compound 10 μM, mean ± SEM of four independent experiments; for % inhibition Tau aggregation @ 10 μM: intact E. coli cells, compound 10 μM, mean ± SEM of four independent experiments
T2 construct: expressed in transfected cells; host or cells: Escherichia coli BL21 (DE3) with pTARA and pRKT42
From the text: as §1
E. coli BL21 (DE3) competent cells were transformed with pTARA containing the RNA-polymerase gen of the T7 phage (T7RP) under the control of the promoter PBAD. E. coli BL21 (DE3) with pTARA competent cells were transformed with the pRKT42 vector encoding four repeats of Tau protein in two inserts. For overnight culture preparation, 10 mL of M9 medium containing 0.5% of glucose, 100 μg·mL^–1 ampicillin, and 12.5 μg·mL^–1 chloramphenicol were inoculated with a colony of BL21 (DE3) bearing the plasmids to be expressed at 37 °C. For expression of Tau protein, the required volume of overnight culture to obtain 1:500 dilution was added to fresh M9 minimal medium containing 0.5% of glucose, 50 μg·mL^–1 ampicillin, 12.5 μg·mL^–1 chloramphenicol, and 25 μM ThS. The bacterial culture was grown at 37 °C and 250 rpm. When the cell density reached ABS600 nm= 0.6, an amount of 980 μL of culture was transferred into Eppendorf tubes of 1.5 mL with 10 μL of each compound to be tested in DMSO and 10 μL of arabinose at 25%. The final concentration of the drug was fixed at 10 μM. The samples were grown overnight at 37 °C and 1400 rpm using a thermomixer (Eppendorf, Hamburg, Germany). As the control of maximal amyloid presence, the same amount of DMSO without the drug was added to the sample. In parallel, noninduced samples (in the absence of arabinose) were also prepared and used as controls for the amyloid absence. In addition, the absorbance at 600 nm of the samples was checked to assess the potential intrinsic toxicity of the compounds and to confirm the correct bacterial growth.
as §2

[1] = system: cerebellar granule neurons (CGNs); experiment: Neurotoxicity on primary cultures of cerebellar granule neurons (nuclei counting after Hoechst staining); conditions: differentiated CGNs, 24 h, percentage of healthy nuclei on total nuclei, mean ± SEM of three experiments
[2] = read-out: % inhibition Aβ42 aggregation @ 10 μM, intact E. coli cells, compound 10 μM, mean ± SEM of four independent experiments

T2 sequence (P10636 1-441 isoform P10636-8): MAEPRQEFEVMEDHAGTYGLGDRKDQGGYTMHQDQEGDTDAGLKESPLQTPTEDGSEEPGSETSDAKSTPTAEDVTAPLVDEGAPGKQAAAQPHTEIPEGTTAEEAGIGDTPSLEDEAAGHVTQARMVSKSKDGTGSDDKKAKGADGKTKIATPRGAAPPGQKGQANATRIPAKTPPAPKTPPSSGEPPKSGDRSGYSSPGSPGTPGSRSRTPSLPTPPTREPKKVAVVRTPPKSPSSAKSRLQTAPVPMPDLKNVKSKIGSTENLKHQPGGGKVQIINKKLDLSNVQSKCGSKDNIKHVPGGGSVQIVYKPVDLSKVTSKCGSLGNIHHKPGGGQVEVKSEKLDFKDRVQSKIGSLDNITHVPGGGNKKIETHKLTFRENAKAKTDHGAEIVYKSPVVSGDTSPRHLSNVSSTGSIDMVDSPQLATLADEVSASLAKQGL
T1 sequence (P05067 672-713 limits assumed): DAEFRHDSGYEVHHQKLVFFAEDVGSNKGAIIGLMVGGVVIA

SMILES | inhibition at 10 µM (Aβ42; [2]) | inhibition at 10 µM (Tau protein) | % survival neurotoxicity @ 10 μM [1] | % inhibition Tau aggregation @ 10 μM (Tau protein; 10 µM) | % inhibition Aβ42 aggregation @ 10 μM (Aβ42; intact E. coli cells, compound 10 μM, mean ± SEM of four independent experiments) | % inhibition Tau aggregation @ 10 μM (Tau protein) | inhibition at 10 µM (Aβ42; read-out: % inhibition Aβ42 aggregation @ 10 μM)
O=C1NC(=O)/C(=C/c2ccc(Cc3ccc(/C=C4\SC(=O)NC4=O)cc3)cc2)S1 [Compound 3, (5Z,5′Z)-5,5′-((Methylenebis(4,1-phenylene))bis(methanylylidene))bis(thiazolidine-2,4-dione)] | 12.9 ± 3.4% | 5.2 ± 2.7% | 62.4 ± 9.6% |  |  |  | 
CN(C)CCN1C(=O)S/C(=C\c2ccc(-c3ccc(/C=C4\SC(=O)N(CCN(C)C)C4=O)s3)s2)C1=O [Compound 24, (5Z,5′Z)-5,5′-([2,2′-Bithiophene]-5,5′-diylbis(methanylylidene))bis(3-(2-(dimethylamino)ethyl)thiazolidine-2,4-dione)] | 20.3 ± 4.8% | 17.3 ± 4.5% | 88.8 ± 2.3% |  |  |  | 
O=C(O)CN1C(=O)S/C(=C\c2ccc(/C=C3\SC(=O)N(CC(=O)O)C3=O)cc2)C1=O [Compound 13, 2,2′-((5Z,5′Z)-(1,4-Phenylenebis(methanylylidene))bis(2,4-dioxothiazolidin-3-yl-5-ylidene))diacetic acid] | 16.1 ± 3.9% | 25.3 ± 4.2% | 82.3 ± 2.9% |  |  |  | 
O=C(O)CN1C(=O)S/C(=C\c2ccc(-c3ccc(/C=C4\SC(=O)N(CC(=O)O)C4=O)s3)s2)C1=O [Compound 18, 2,2′-((5Z,5′Z)-([2,2′-Bithiophene]-5,5′-diylbis(methanylylidene))bis(2,4-dioxothiazolidin-3-yl-5-ylidene))diacetic acid] | 65.6 ± 3.3% | < 20% | 90.9 ± 3.1% | 15.8 ± 4.7% |  |  | 
O=C(O)CN1C(=O)S/C(=C\c2ccc(Cc3ccc(/C=C4\SC(=O)N(CC(=O)O)C4=O)cc3)cc2)C1=O [Compound 15, 2,2′-((5Z,5′Z)-((Methylenebis(4,1-phenylene))bis(methanylylidene))bis(2,4-dioxothiazolidin-3-yl-5-ylidene))diacetic acid] | 26.2 ± 1.9% | 3.8 ± 5.2% | 90.9 ± 1.5% |  |  |  | 
CN(C)CCN1C(=O)S/C(=C\c2ccc(-c3ccc(/C=C4\SC(=O)N(CCN(C)C)C4=O)cc3)cc2)C1=O [Compound 20, (5Z,5′Z)-5,5′-([1,1′-Biphenyl]-4,4′-diylbis(methanylylidene))bis(3-(2-(dimethylamino)ethyl)thiazolidine-2,4-dione)] | 26.4 ± 4.2% | 34.9 ± 1.9% | 91.1 ± 0.9% |  |  |  | 
CCOC(=O)CN1C(=O)S/C(=C\c2ccc(Cc3ccc(/C=C4\SC(=O)N(CC(=O)OCC)C4=O)cc3)cc2)C1=O [Compound 9, Diethyl 2,2′-((5Z,5′Z)-((methylenebis(4,1-phenylene))bis(methanylylidene))bis(2,4-dioxothiazolidin-3-yl-5-ylidene))diacetate] | 14.5 ± 4.1% | 19.9 ± 3.6% | 88.7 ± 4.1% |  |  |  | 
CC1(C)c2cc(/C=C3\SC(=O)NC3=O)ccc2-c2ccc(/C=C3\SC(=O)NC3=O)cc21 [Compound 5, (5Z,5′Z)-5,5′-((9,9-Dimethyl-9H-fluorene-2,7-diyl)bis(methanylylidene))bis(thiazolidine-2,4-dione)] | 23.6 ± 2.6% | 14.8 ± 3% | 67.9 ± 5.4% |  |  |  | 
CCOC(=O)CN1C(=O)S/C(=C\c2ccc(-c3ccc(/C=C4\SC(=O)N(CC(=O)OCC)C4=O)cc3)cc2)C1=O [Compound 8, Diethyl 2,2′-((5Z,5′Z)-([1,1′-biphenyl]-4,4′-diylbis(methanylylidene))bis(2,4-dioxothiazolidin-3-yl-5-ylidene))diacetate] | 14.3 ± 3.5% | 18.1 ± 3.2% | 87.2 ± 3.1% |  |  |  | 
CC1=CC2Cc3nc4cc(Cl)ccc4c(NCCCCCCCNc4c5c(nc6ccccc46)CCCC5)c3C(C1)C2 (centres unmarked) [HUP7TH, reference compound] |  |  |  |  | 77.6 ± 1.5% | 69.5 ± 1.6% | 
CN(C)CCN1C(=O)S/C(=C\c2ccc(Cc3ccc(/C=C4\SC(=O)N(CCN(C)C)C4=O)cc3)cc2)C1=O [Compound 21, (5Z,5′Z)-5,5′-((Methylenebis(4,1-phenylene))bis(methanylylidene))bis(3-(2-(dimethylamino)ethyl)thiazolidine-2,4-dione)] | 16.1 ± 3.8% | 38.7 ± 3.3% | 91.1 ± 1.5% |  |  |  | 
O=C1NC(=O)/C(=C/c2ccc(-c3ccc(/C=C4\SC(=O)NC4=O)cc3)cc2)S1 [Compound 2, (5Z,5′Z)-5,5′-([1,1′-Biphenyl]-4,4′-diylbis(methanylylidene))bis(thiazolidine-2,4-dione)] | 20.2 ± 2.1% | 16.5 ± 3.1% | 81.3 ± 6.5% |  |  |  | 
O=C(O)CN1C(=O)S/C(=C\c2ccc(-c3ccc(/C=C4\SC(=O)N(CC(=O)O)C4=O)cc3)cc2)C1=O [Compound 14, 2,2′-((5Z,5′Z)-([1,1′-Biphenyl]-4,4′-diylbis(methanylylidene))bis(2,4-dioxothiazolidin-3-yl-5-ylidene))diacetic acid] | 35.1 ± 1.9% | 27.1 ± 2.5% | 89.0 ± 2.2% |  |  |  | 
O=C1NC(=O)/C(=C/c2ccc3[nH]c4ccc(/C=C5\SC(=O)NC5=O)cc4c3c2)S1 [Compound 4, (5Z,5′Z)-5,5′-((9H-Carbazole-3,6-diyl)bis(methanylylidene))bis(thiazolidine-2,4-dione)] | 24.7 ± 4.1% | 21.2 ± 2.6% | 73.4 ± 5.1% |  |  |  | 
CCOC(=O)CN1C(=O)S/C(=C\c2ccc(-c3ccc(/C=C4\SC(=O)N(CC(=O)OCC)C4=O)s3)s2)C1=O [Compound 12, Diethyl 2,2′-((5Z,5′Z)-([2,2′-bithiophene]-5,5′-diylbis(methanylylidene))bis(2,4-dioxothiazolidin-3-yl-5-ylidene))diacetate] | 7 ± 3.7% | 9.2 ± 5% | 90.2 ± 2.1% |  |  |  | 
CC1=CC2Cc3nc4cc(Cl)ccc4c(N)c3C(C1)C2 (centres unmarked) [Huprine Y, huprine Y, reference compound] |  |  |  |  |  |  | 4.6 ± 2.3%
O=C(O)c1cc(O)c2c(c1)C(=O)c1cccc(O)c1C2=O [Rhein, rhein, reference compound] |  | 39.2 ± 2.1% |  |  |  |  | 
